Results as given in PubChem BioAssay (NCI).
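Values below derive from 48-hour exposures of cells grown in 96-well plates, with endpoints linearly interpolated between the two concentrations bracketing the appropriate inhibition level. The concentration for 50% growth inhibition is given as GI50. TGI: total growth inhibition.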

Legend:
Test in all cases: inhibition of tumour cell growth, NCI panel, 48 h
HCT-15 colon = test system: HCT-15 colon
HS 578T breast = test system: HS 578T breast
KM12 colon = test system: KM12 colon
MCF7 breast = test system: MCF7 breast
MDA-MB-231 breast = test system: MDA-MB-231 breast
MOLT-4 leukemia = test system: MOLT-4 leukemia
NCI-H460 lung = test system: NCI-H460 lung
OVCAR-8 ovarian = test system: OVCAR-8 ovarian
SN12C renal = test system: SN12C renal
UACC-62 melanoma = test system: UACC-62 melanoma

Structure (SMILES) | GI50 (HCT-15 colon) [µM] | TGI (HCT-15 colon) [µM] | GI50 (HS 578T breast) [µM] | TGI (HS 578T breast) [µM] | GI50 (KM12 colon) [µM] | TGI (KM12 colon) [µM] | GI50 (MCF7 breast) [µM] | TGI (MCF7 breast) [µM] | GI50 (MDA-MB-231 breast) [µM] | TGI (MDA-MB-231 breast) [µM] | GI50 (MOLT-4 leukemia) [µM] | TGI (MOLT-4 leukemia) [µM] | GI50 (NCI-H460 lung) [µM] | TGI (NCI-H460 lung) [µM] | GI50 (OVCAR-8 ovarian) [µM] | TGI (OVCAR-8 ovarian) [µM] | GI50 (SN12C renal) [µM] | TGI (SN12C renal) [µM] | GI50 (UACC-62 melanoma) [µM] | TGI (UACC-62 melanoma) [µM]
CSC1=Nc2c(c(C)c(-c3ccccc3)n2CCCN2CCCCC2)C2=NC(=O)C[C@H](C)N12 | 8.41 | > 53.2 | 2.04 | 10.4 | 3.26 | 12.5 | 2.72 | 11.3 | 2.59 | > 30.9 | 4.38 | > 22.5 | 3.27 | 12.4 | 4.01 | > 55.7 | 2.42 | 20.9 | 3.17 | 15.4
COc1cc2nccc(Oc3ccc(NC(=O)NC4CC4)c(Cl)c3)c2cc1C(N)=O | 32 | > 100 | 14.5 | > 86.9 | 5.5 | > 100 | 36.2 | > 100 | 11.5 | 43.8 | 16.7 | > 100 | 39.9 | > 100 | 17.5 | > 79.1 | 7.44 | > 100 | 19.1 | > 89.2
NS(=O)(=O)OCC1OC(n2cnc3cncnc32)C(O)C1O (stereo not given) | 0.0283 | 0.105 | 0.0592 | 0.932 | 0.0179 | 0.0522 | 0.0185 | 0.0806 | 0.0101 | 0.0376 | 0.0209 | 2.42 | 0.024 | 0.0762 | < 0.01 | 0.0466 | < 0.01 | 0.0369 | 0.0371 | 0.133
CN1CCC(COc2cnc(-c3cccc(Cn4nc(-c5cccc(C#N)c5)ccc4=O)c3)nc2)CC1 | 3.47 | 15.5 | 4.63 | 19.8 | 4.36 | 16.5 | 3.46 | 14.9 | 2 | 4.43 | 2.53 | 6.62 | 3.58 | 12.3 | 3.27 | 12.8 | 6.89 | 19.6 | 2.07 | 4.54
CC[C@@H]1[C@@H](C)O[C@@](O)([C@@H](C)[C@H](O)[C@H](C)[C@H]2OC(=O)/C=C/C=C/[C@H](C)[C@@H]([C@@H](C)[C@@H](O)[C@H](C)[C@@]3(O)C[C@@H](O[C@H]4C[C@@H](O)[C@H](O)C(C)O4)[C@H](CC)[C@@H](C)O3)OC(=O)/C=C/C=C/[C@@H]2C)C[C@H]1O[C@@H]1C[C@@H](O)[C@H](O)C(C)O1 (stereo not given in full) | 0.459 | 0.924 | 0.0798 | 0.253 | 0.125 | 0.413 | 0.0843 | 0.287 | 0.0586 | 0.139 | 0.0933 | 0.219 | 0.0569 | 0.115 | 0.138 | 0.557 | 0.0584 | 0.126 | 0.0604 | 0.152
Nc1c(C(=O)c2ccc(-c3cccnc3)cc2)cnn1-c1ccc(F)cc1 | > 20.2 | > 25 | > 25 | > 25 | > 20.8 | > 25 | > 25 | > 25 | > 13.1 | > 25 | > 25 | > 25 | > 14.2 | > 25 | > 17.5 | > 25 | > 19.5 | > 25 | > 21.1 | > 25
Cc1cccc(-c2[nH]ncc2-c2ccc3ncccc3n2)n1 | 9.98 | > 25 | > 14.5 | > 25 | 9.51 | > 25 | 8.48 | > 25 | 14.5 | > 25 | 14.2 | > 25 | 8.76 | > 25 | 8.54 | > 25 | 9.64 | > 25 | 13.7 | > 25
CN(C)c1ccc(/C=C/c2ccnc3c(O)cccc23)cc1 | 0.335 | > 100 | 0.85 | > 100 | 0.399 | > 100 | 0.371 | > 100 | 0.434 | > 100 | 0.357 | > 100 | 0.363 | > 100 | 0.352 | > 100 | 0.529 | > 100 | 0.294 | 1.07
O=C(O)/C=C/C(=O)N1Cc2cc3ccccc3nc2C1 | – | > 100 | – | > 100 | – | > 100 | – | > 100 | – | > 100 | – | > 100 | – | > 100 | – | > 100 | – | > 100 | – | > 100
